Patent publication US20250188085A1, “COMPOSITIONS AND METHODS FOR INHIBITION OF RAS” (THERAS, INC., priority 2022, published 2025)

Columns and labels:
[1] = target: T1, GppNHp-loaded KRAS4b (amino acids 1-169) G12C/C118S protein (Homo sapiens, UniProt P01116, C118S/G12C); experiment: Covalent cysteine 12 modification by MALDI-TOF MS, GppNHp-loaded KRAS G12C; format: binding; details: 15 minutes reaction time point
T1 construct: KRAS4b (amino acids 1-169) G12C/C118S protein; made in house
Method in brief: (§1)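 KRAS4b 1-169 G12C/C118S loaded with GDP, GppNHp or GTP was used at 1 μM in 20 mM HEPES, 150 mM NaCl, 1 mM MgCl2, pH 7.3, and incubated with compound (5 mM DMSO stock) at room temperature in the dark. % modification at 15 min is adduct peak height over total protein peak heights by linear-mode MALDI-TOF.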

[2] = target: T2, GTP-loaded KRAS4b (amino acids 1-169) G12C/C118S protein (Homo sapiens, UniProt P01116, C118S/G12C); experiment: Covalent cysteine 12 modification by MALDI-TOF MS, GTP-loaded KRAS G12C; format: binding; details: 15 minutes reaction time point
T2 construct: KRAS4b (amino acids 1-169) G12C/C118S protein; made in house
Method in brief: as §1

[3] = target: T3, Avi-KRAS G12C (1-169) GppNHp/RAF1 RBD-3×FLAG (52-151) (Homo sapiens, UniProt P01116, G12C); experiment: Raf1 RBD-KRAS G12C-GppNHp disruption (protein:protein interaction HTRF assay); format: biochemical
T3 construct: Avi-KRAS G12C (1-169) GppNHp/RAF1 RBD-3×FLAG (52-151)
Method in brief: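 HTRF measuring disruption of 50 nM Avi-KRAS G12C (1-169) loaded with GppNHp binding RAF1 RBD-3×FLAG (52-151), in pH 7.5 Tris buffer with 5 mM MgCl2, 0.1% BSA, 10% DMSO. KRAS preincubated with compound 1 h, then RBD 1 h, then detection reagents 1 h, all at room temperature. Compound titration 30-0.02 μM; activity expressed as percent of DMSO control.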

[4] = target: T4, GDP-loaded KRAS4b (amino acids 1-169) G12C/C118S protein (Homo sapiens, UniProt P01116, C118S/G12C); experiment: Covalent cysteine 12 modification by MALDI-TOF MS, GDP-loaded KRAS G12C; format: binding; details: 15 minutes reaction time point
T4 construct: KRAS4b (amino acids 1-169) G12C/C118S protein; made in house
Method in brief: as §1

pERK in NCI-H358 cells = experiment: Cell-based pERK HTRF assay; details: Homo sapiens, NCI-H358, 0.5 h, 30 min incubation, read-out: pERK in NCI-H358 cell inhibition IC50
Method in brief: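 Cells seeded at 4×10^4/well in RPMI with 10% FBS, then next day treated for 30 min with a 9-point, 3-fold series from 75 μM top concentration at 0.25% DMSO. Lysates were read for pERK by HTRF (d2/Eu cryptate antibodies) after 4–24 h at room temperature, emission at 615 nm.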

| GppNHp-KRAS G12C percent of modification [1] | GTP-KRAS G12C percent of modification [2] | IC50 [3] [nM] | GDP-KRAS G12C percent of modification [4] | IC50 (pERK in NCI-H358 cells) [nM] | Compound |
| --- | --- | --- | --- | --- | --- |
| C (10%≤modification <50%) | C (10%≤modification <50%) | ≤ 500 | A (percent of modification ≥70%) | ≤ 100 | C=CC(=O)N1CC[C@@H](Oc2nc(OC[C@@]34CCCN3C[C@H](F)C4)nc3c(F)c(-c4ccc(F)c5sc(N)c(C#N)c45)ccc23)[C@H]1CC [Compound 108] |
| A (percent of modification ≥70%) | A (percent of modification ≥70%) | ≤ 500 | A (percent of modification ≥70%) | ≤ 100 | C=CC(=O)N1CC[C@@H](Oc2nc(OC[C@@]34CCCN3C[C@H](F)C4)nc3c(Cl)c(-c4ccc(F)c5sc(N)c(C#N)c45)ncc23)[C@H]1COC [Compound 110] |
| D (percent of modification <10%) | D (percent of modification <10%) | 500 to 5000 | C (10%≤modification <50%) | ≤ 100 | C=CC(=O)N1CC[C@@H](Oc2nc(OC[C@@]34CCCN3C[C@H](F)C4)nc3c(F)c(-c4ccc(F)c5sc(N)c(C#N)c45)c(Cl)cc23)[C@H]1COC [Compound 111] |
| A (percent of modification ≥70%) | C (10%≤modification <50%) | ≤ 500 | A (percent of modification ≥70%) | ≤ 100 | C=CC(=O)N1CC[C@@H](Oc2nc(OC[C@@]34CCCN3C[C@H](F)C4)nc3cc(-c4ccc(F)c5sc(N)c(C#N)c45)c(C#N)cc23)[C@H]1COC [Compound 112] |
| D (percent of modification <10%) | D (percent of modification <10%) | > 20000 | C (10%≤modification <50%) | > 1000 | C=CC(=O)N1CC[C@@H](Oc2nc(OC[C@@]34CCCN3C[C@H](F)C4)nc3cc(-c4ccc(F)c5sc(N)c(C#N)c45)c(F)cc23)[C@H]1COC [Compound 113] |
| C (10%≤modification <50%) | C (10%≤modification <50%) | ≤ 500 | C (10%≤modification <50%) | ≤ 100 | C=CC(=O)N1CC[C@@H](Oc2nc(OC[C@@]34CCCN3C[C@H](F)C4)nc3c(F)c(-c4ccc(F)c5sc(N)c(C#N)c45)c(C(F)(F)F)cc23)[C@H]1CC [Compound 114] |
| D (percent of modification <10%) | D (percent of modification <10%) | 500 to 5000 | C (10%≤modification <50%) | 100 to 1000 | C=CC(=O)N1CC[C@@H](Oc2nc(OC[C@@]34CCCN3C[C@H](F)C4)nc3c(F)c(-c4ccc(F)c5sc(N)c(C#N)c45)c(C(F)(F)F)cc23)[C@@H]1CC [Compound 115] |
| D (percent of modification <10%) | D (percent of modification <10%) | > 20000 | C (10%≤modification <50%) | > 1000 | C=CC(=O)N1CC[C@@H](Oc2nc(OC[C@@]34CCCN3C[C@H](F)C4)nc3c(F)c(-c4ccc(F)c5sc(N)c(C#N)c45)ccc23)[C@@H]1CC [Compound 116] |
| D (percent of modification <10%) | D (percent of modification <10%) | > 20000 | C (10%≤modification <50%) | > 1000 | C=CC(=O)N1CC[C@@H](Oc2nc(OC[C@@]34CCCN3C[C@H](F)C4)nc3c(F)c(-c4ccc(F)c5sc(N)c(C#N)c45)c(Cl)cc23)[C@@H]1CC [Compound 117] |
| D (percent of modification <10%) | D (percent of modification <10%) | 500 to 5000 | A (percent of modification ≥70%) | > 1000 | C=CC(=O)N1CC[C@@H](Oc2nc(OC[C@@]34CCCN3C[C@H](F)C4)nc3c(F)c(-c4ccc(F)c5sc(N)c(C#N)c45)ccc23)[C@@H]1C [Compound 118] |
| D (percent of modification <10%) | D (percent of modification <10%) | 5000 to 20000 | B (50≤percent of modification <70%) | > 1000 | C=CC(=O)N1CC[C@@H](Oc2nc(OC[C@@]34CCCN3C[C@H](F)C4)nc3cc(-c4ccc(F)c5sc(N)c(C#N)c45)c(F)cc23)[C@@H]1C [Compound 119] |
| D (percent of modification <10%) | D (percent of modification <10%) | 5000 to 20000 | B (50≤percent of modification <70%) | 100 to 1000 | C=CC(=O)N1CC[C@@H](Oc2nc(OC[C@@]34CCCN3C[C@H](F)C4)nc3cc(-c4ccc(F)c5sc(N)c(C#N)c45)c(C#N)cc23)[C@@H]1C [Compound 120] |
| C (10%≤modification <50%) | D (percent of modification <10%) | ≤ 500 | C (10%≤modification <50%) | 100 to 1000 | C=CC(=O)N1CC[C@@H](Oc2nc(OC[C@@]34CCCN3C[C@H](F)C4)nc3c(F)c(-c4ccc(F)c5sc(N)c(C#N)c45)c(Cl)cc23)[C@@H]1C [Compound 121] |
| D (percent of modification <10%) | D (percent of modification <10%) | > 20000 | C (10%≤modification <50%) | > 1000 | C=CC(=O)N1CC[C@@H](Oc2nc(OC[C@@]34CCCN3C[C@H](F)C4)nc3cc(-c4ccc(F)c5sc(N)c(C#N)c45)c(F)cc23)[C@@H]1COC [Compound 122] |
| C (10%≤modification <50%) | D (percent of modification <10%) | ≤ 500 | B (50≤percent of modification <70%) | ≤ 100 | C=CC(=O)N1CC[C@@H](Oc2nc(OC[C@@]34CCCN3C[C@H](F)C4)nc3c(F)c(-c4ccc(F)c5sc(N)c(C#N)c45)c(C(F)(F)F)cc23)[C@@H]1C [Compound 123] |
| D (percent of modification <10%) | D (percent of modification <10%) | 500 to 5000 | B (50≤percent of modification <70%) | 100 to 1000 | C=CC(=O)N1CC[C@@H](Oc2nc(OC[C@@]34CCCN3C[C@H](F)C4)nc3c(Cl)c(-c4ccc(F)c5sc(N)c(C#N)c45)ncc23)[C@@H]1C [Compound 124] |
| D (percent of modification <10%) | D (percent of modification <10%) | > 20000 | C (10%≤modification <50%) | > 1000 | C=CC(=O)N1CC[C@@H](Oc2nc(OC[C@@]34CCCN3C[C@H](F)C4)nc3c(F)c(-c4ccc(F)c5sc(N)c(C#N)c45)ccc23)[C@@H]1COC [Compound 125] |
| D (percent of modification <10%) | D (percent of modification <10%) | 500 to 5000 | A (percent of modification ≥70%) | 100 to 1000 | C=CC(=O)N1CC[C@@H](Oc2nc(OC[C@@]34CCCN3C[C@H](F)C4)nc3c(F)c(-c4ccc(F)c5sc(N)c(C#N)c45)c(Cl)cc23)[C@@H]1COC [Compound 126] |
| D (percent of modification <10%) | D (percent of modification <10%) | ≤ 500 | B (50≤percent of modification <70%) | 100 to 1000 | C=CC(=O)N1CC[C@@H](Oc2nc(OC[C@@]34CCCN3C[C@H](F)C4)nc3c(F)c(-c4ccc(F)c5sc(N)c(C#N)c45)c(C(F)(F)F)cc23)[C@@H]1COC [Compound 127] |
| D (percent of modification <10%) | D (percent of modification <10%) | > 20000 | C (10%≤modification <50%) | > 1000 | C=CC(=O)N1CC[C@@H](Oc2nc(OC[C@@]34CCCN3C[C@H](F)C4)nc3cc(-c4ccc(F)c5sc(N)c(C#N)c45)c(C#N)cc23)[C@@H]1COC [Compound 128] |
